Data as given in ChEMBL document CHEMBL3885881, “DrugMatrix”.

Species: Rattus norvegicus
Test: DrugMatrix - Regimen: Daily Repeat
Type: toxicity, organism-based, Sprague-Dawley
Design: regimen Daily Repeat, gender Male, age 6-8 weeks
Conditions: in vivo, po, route oral GAVAGE, […]; for ABSOLUTE BASOPHIL / ABSOLUTE EOSINOPHIL / ABSOLUTE LYMPHOCYTE / ABSOLUTE MONOCYTE / ABSOLUTE SEGMENTED NEUTROPHIL / BASOPHIL / EOSINOPHIL / ERYTHROCYTE COUNT / HEMATOCRIT / HEMOGLOBIN / LEUKOCYTE COUNT / LYMPHOCYTE / MEAN CORPUSCULAR HEMOGLOBIN / MEAN CORPUSCULAR HEMOGLOBIN CONCENTRATION / MEAN CORPUSCULAR VOLUME / MONOCYTE / NEUTROPHIL / NUCLEATED RED BLOOD CELLS / PLATELET COUNT: tissue Blood; for ALANINE AMINOTRANSFERASE / ALBUMIN / ALKALINE PHOSPHATASE / ASPARTATE AMINOTRANSFERASE / BLOOD UREA NITROGEN / CARBON DIOXIDE / CHLORIDE / CHOLESTEROL / CREATINE PHOSPHOKINASE / CREATININE / GLUCOSE / LACTATE DEHYDROGENASE / LIPASE / PHOSPHORUS / POTASSIUM / SODIUM / TOTAL BILIRUBIN / TOTAL PROTEIN / URIC ACID: tissue Plasma
[1] = 0 mg/kg, 72 h, dose level Control, time 3 day
[2] = 0 mg/kg, 120 h, dose level Control, time 5 day
[3] = 10 mg/kg, 72 h, dose level Low, time 3 day

COc1cc(N)c(Cl)cc1C(=O)NC1CCN(CCCOc2ccc(F)cc2)CC1OC (centres undefined) [CISAPRIDE]
ABSOLUTE BASOPHIL [1]: 0 CELLS/uL | ABSOLUTE EOSINOPHIL [1]: 13.67 CELLS/uL | ABSOLUTE LYMPHOCYTE [1]: 10069.5 CELLS/uL | ABSOLUTE MONOCYTE [1]: 50 CELLS/uL | ABSOLUTE SEGMENTED NEUTROPHIL [1]: 516.83 CELLS/uL | BASOPHIL [1]: 0% | EOSINOPHIL [1]: 0.17% | ERYTHROCYTE COUNT [1]: 5.44 x10E6/uL | HEMATOCRIT [1]: 33.88% | HEMOGLOBIN [1]: 13.23 G/DL | LEUKOCYTE COUNT [1]: 10.65 x10E3/uL | LYMPHOCYTE [1]: 94.67% | MEAN CORPUSCULAR HEMOGLOBIN [1]: 24.37 pg | MEAN CORPUSCULAR HEMOGLOBIN CONCENTRATION [1]: 39.05 G/DL | MEAN CORPUSCULAR VOLUME [1]: 62.38 fL | MONOCYTE [1]: 0.67% | NEUTROPHIL [1]: 4.5% | NUCLEATED RED BLOOD CELLS [1]: 0.33 /100WBC | PLATELET COUNT [1]: 414.5 x10E3/uL | ALANINE AMINOTRANSFERASE [1]: 72 u/L | ALBUMIN [1]: 3.75 G/DL | ALKALINE PHOSPHATASE [1]: 375 u/L | ASPARTATE AMINOTRANSFERASE [1]: 87.5 u/L | BLOOD UREA NITROGEN [1]: 14 mg/dL | CARBON DIOXIDE [1]: 27.5 mmol/L | CHLORIDE [1]: 95.83 MEQ/L | CHOLESTEROL [1]: 68.5 mg/dL | CREATINE PHOSPHOKINASE [1]: 284.33 u/L | CREATININE [1]: 0.16 mg/dL | GLUCOSE [1]: 156.67 mg/dL | LACTATE DEHYDROGENASE [1]: 101.83 u/L | LIPASE [1]: 9.67 u/L | PHOSPHORUS [1]: 10.33 mg/dL | POTASSIUM [1]: 5.22 MEQ/L | SODIUM [1]: 137.67 MEQ/L | TOTAL BILIRUBIN [1]: 0.13 mg/dL | TOTAL PROTEIN [1]: 5.43 G/DL | URIC ACID [1]: 0.8 mg/dL | ABSOLUTE BASOPHIL [2]: 0 CELLS/uL | ABSOLUTE EOSINOPHIL [2]: 20.67 CELLS/uL | ABSOLUTE LYMPHOCYTE [2]: 11518.33 CELLS/uL | ABSOLUTE MONOCYTE [2]: 47 CELLS/uL | ABSOLUTE SEGMENTED NEUTROPHIL [2]: 614 CELLS/uL | BASOPHIL [2]: 0% | EOSINOPHIL [2]: 0.17% | ERYTHROCYTE COUNT [2]: 5.61 x10E6/uL | HEMATOCRIT [2]: 34.25% | HEMOGLOBIN [2]: 13.38 G/DL | LEUKOCYTE COUNT [2]: 12.2 x10E3/uL | LYMPHOCYTE [2]: 94.33% | MEAN CORPUSCULAR HEMOGLOBIN [2]: 23.83 pg | MEAN CORPUSCULAR HEMOGLOBIN CONCENTRATION [2]: 39.08 G/DL | MEAN CORPUSCULAR VOLUME [2]: 61.03 fL | MONOCYTE [2]: 0.33% | NEUTROPHIL [2]: 5.17% | NUCLEATED RED BLOOD CELLS [2]: 0 /100WBC | PLATELET COUNT [2]: 941.83 x10E3/uL | ALANINE AMINOTRANSFERASE [2]: 68.83 u/L | ALBUMIN [2]: 4.12 G/DL | ALKALINE PHOSPHATASE [2]: 492.67 u/L | ASPARTATE AMINOTRANSFERASE [2]: 83.33 u/L | BLOOD UREA NITROGEN [2]: 14 mg/dL | CARBON DIOXIDE [2]: 37 mmol/L | CHLORIDE [2]: 98.67 MEQ/L | CHOLESTEROL [2]: 56.5 mg/dL | CREATINE PHOSPHOKINASE [2]: 167.33 u/L | CREATININE [2]: 0.17 mg/dL | GLUCOSE [2]: 157.5 mg/dL | LACTATE DEHYDROGENASE [2]: 104.83 u/L | LIPASE [2]: 10 u/L | PHOSPHORUS [2]: 10.43 mg/dL | POTASSIUM [2]: 5.46 MEQ/L | SODIUM [2]: 143.87 MEQ/L | TOTAL BILIRUBIN [2]: 0.17 mg/dL | TOTAL PROTEIN [2]: 5.72 G/DL | URIC ACID [2]: 0.85 mg/dL | ABSOLUTE BASOPHIL [3]: 0 CELLS/uL | ABSOLUTE EOSINOPHIL [3]: 28.67 CELLS/uL | ABSOLUTE LYMPHOCYTE [3]: 6489.33 CELLS/uL | ABSOLUTE MONOCYTE [3]: 15.33 CELLS/uL | ABSOLUTE SEGMENTED NEUTROPHIL [3]: 433.33 CELLS/uL | BASOPHIL [3]: 0% | EOSINOPHIL [3]: 0.33% | ERYTHROCYTE COUNT [3]: 5.4 x10E6/uL | HEMATOCRIT [3]: 33.3% | HEMOGLOBIN [3]: 13.8 G/DL | LEUKOCYTE COUNT [3]: 6.97 x10E3/uL | LYMPHOCYTE [3]: 93% | MEAN CORPUSCULAR HEMOGLOBIN [3]: 25.63 pg | MEAN CORPUSCULAR HEMOGLOBIN CONCENTRATION [3]: 41.53 G/DL | MEAN CORPUSCULAR VOLUME [3]: 61.73 fL | MONOCYTE [3]: 0.33% | NEUTROPHIL [3]: 6.33% | NUCLEATED RED BLOOD CELLS [3]: 0 /100WBC | PLATELET COUNT [3]: 546 x10E3/uL | ALANINE AMINOTRANSFERASE [3]: 94.67 u/L | ALBUMIN [3]: 3.93 G/DL | ALKALINE PHOSPHATASE [3]: 442.33 u/L | ASPARTATE AMINOTRANSFERASE [3]: 96.33 u/L | BLOOD UREA NITROGEN [3]: 14.33 mg/dL | CARBON DIOXIDE [3]: 26 mmol/L | CHLORIDE [3]: 96.33 MEQ/L | CHOLESTEROL [3]: 72.67 mg/dL | CREATINE PHOSPHOKINASE [3]: 359.33 u/L | CREATININE [3]: 0.12 mg/dL | GLUCOSE [3]: 150 mg/dL | LACTATE DEHYDROGENASE [3]: 116.67 u/L | LIPASE [3]: 12 u/L | PHOSPHORUS [3]: 10.9 mg/dL | POTASSIUM [3]: 5.56 MEQ/L | SODIUM [3]: 139.97 MEQ/L | TOTAL BILIRUBIN [3]: 0.2 mg/dL | TOTAL PROTEIN [3]: 5.53 G/DL | URIC ACID [3]: 0.7 mg/dL
